Experimental data: paper PMC2674587 (BMC Immunology, 2009)
Where two headings read alike, the source gives them in different places.

Legend:
hDPP-9 [1] = molecular target: T1, hDPP-9 (Homo sapiens, UniProt Q86TI2); experiment: DPP-9 enzyme inhibition; format: biochemical
hDPP-2 = hDPP-2 (Homo sapiens, UniProt Q9UHL4); experiment: DPP-2 enzyme inhibition; format: biochemical
[2] = test system: T cell-dependent antibody responses to NP-CGG; experiment: T cell-dependent antibody responses to NP-CGG (ELISA titers, altered ligand density ELISA); format: in vivo, C57BL/6 mice; settings: mice on chow ~400 mg/kg, immunized with NP-CGG
Description: Mice were immunized i.p. with 100 μg of NP-CGG in alum for the primary immunization, and 100 μg of NP-CGG in PBS i.p. for the secondary immunization. Mice were bled via the retro orbital sinus at indicated times and the levels of anti-NP and CGG antibodies and their isotypes were determined by ELISA as described previously. Briefly, mouse serum antibodies were immobilized onto 96-well plates coated with NP-BSA or CGG and detected with biotin-conjugated anti-mouse immunoglobulins. […] Relative affinities of serum antibodies were evaluated by using altered ligand density ELISA as described earlier.

[3] = test system: H-Y+ target cells (male splenocytes); experiment: In vivo cytotoxicity (CTL) assay against H-Y antigen; parameters: species or system C57BL/6 mice; settings: for killing of male cells (CD8 T cell mediated): female mice primed and boosted with male splenocytes, CFSE-labeled targets, FACS, n = 8
Description: C57BL/6 female and male mice, age 8 ~10 weeks, were used for in vivo cytotoxicity assays. Female mice were immunized i.p. with syngeneic C57BL/6 male splenocytes (1 × 10^7 in 100 μl PBS) at day 0 and boosted at day 10 to generate anti-H-Y cytotoxic T cells. The in vivo CTL assay was performed as described earlier with some modifications Target cells were prepared and adoptively transferred to recipient female mice at day 18 post priming and specific killing of target H-Y^+ cells was analyzed at day 19. Briefly, male and female C57BL/6 naïve splenocytes were isolated and depleted of erythrocyte with RBC lysis buffer (Sigma-Aldrich, St. Louis, MO, USA). The splenocytes were washed 1× with 10% FBS RPMI 1640 and 2× with PBS. The cell densities were adjusted to 2×10^7 cells/ml. Male splenocytes were labeled with a high concentration (5 μM) of 5,6-carboxy-fluorescein succinimdyl ester (CFSE, Molecular Probes, Eugene, OR, USA), and the female splenocyte were labeled with low CFSE (0.5 μM). CFSE labeling was carried out by incubating 2 × 10^7 cells/ml in PBS with CFSE at 37°C in a 5% CO2 incubator for 10 min and quenched by adding 10% FBS RPMI to a final volume of 50 ml. Cells were washed 1× with 10%FBS RPMI and 2× with PBS to remove free CFSE. Male and female splenocytes were mixed 1:1 in PBS for the adoptive transfer. 10^6 cells in 200 μl PBS were injected into recipient female mice via tail vein injection. Similar amounts of cell were injected into the control unimmunized female mice. Spleens from the recipient mice were harvested after 16 hr, and splenocytes were analyzed for specific killing of H-Y^+ target cells by FACS. At least 5,000 CFSE positive cells were analyzed. The recovery and percent killing of the CFSE-labeled targets were calculated as follows: […]

hDPP-9 [4] = molecular target: T1, hDPP-9; parameters: method as in PMID 16186403, PMID 16731832; settings: read-out: does not inhibit DPP-9 at; cited from earlier work
Proline dipeptidase = settings: read-out: does not inhibit Proline dipeptidase; cited from earlier work
Prolyl endopeptidase = settings: read-out: does not inhibit Prolyl endopeptidase; cited from earlier work
[5] = test system: Fibroblast activation protein; settings: read-out: does not inhibit Fibroblast activation protein; cited from earlier work
Amino peptidase P = settings: read-out: does not inhibit Amino peptidase P; cited from earlier work
Prolidase = settings: read-out: does not inhibit Prolidase; cited from earlier work

T1 sequence (Q86TI2 whole entry): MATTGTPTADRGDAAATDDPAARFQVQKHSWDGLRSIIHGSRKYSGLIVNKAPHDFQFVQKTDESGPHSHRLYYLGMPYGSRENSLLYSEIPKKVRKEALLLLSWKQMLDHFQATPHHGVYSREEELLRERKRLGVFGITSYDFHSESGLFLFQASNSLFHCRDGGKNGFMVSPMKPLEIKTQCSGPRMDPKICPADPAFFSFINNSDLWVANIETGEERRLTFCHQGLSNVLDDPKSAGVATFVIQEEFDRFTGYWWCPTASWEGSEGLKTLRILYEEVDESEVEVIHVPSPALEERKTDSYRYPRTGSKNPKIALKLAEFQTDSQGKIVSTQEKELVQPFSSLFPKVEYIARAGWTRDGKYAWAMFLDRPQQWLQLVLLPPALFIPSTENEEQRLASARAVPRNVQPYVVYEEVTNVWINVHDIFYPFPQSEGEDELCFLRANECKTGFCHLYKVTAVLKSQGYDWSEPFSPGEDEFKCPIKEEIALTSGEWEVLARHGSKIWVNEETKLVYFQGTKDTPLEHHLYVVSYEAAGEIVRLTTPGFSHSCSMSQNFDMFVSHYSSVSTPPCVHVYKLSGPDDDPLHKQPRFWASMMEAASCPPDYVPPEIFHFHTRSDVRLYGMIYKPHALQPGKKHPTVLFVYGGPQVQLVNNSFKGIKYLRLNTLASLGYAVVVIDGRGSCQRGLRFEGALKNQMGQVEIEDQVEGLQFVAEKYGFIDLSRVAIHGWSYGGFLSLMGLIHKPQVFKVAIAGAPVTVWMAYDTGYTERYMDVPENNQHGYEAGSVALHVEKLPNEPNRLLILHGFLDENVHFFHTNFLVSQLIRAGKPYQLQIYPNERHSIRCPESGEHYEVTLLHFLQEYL

Compound | IC50 (hDPP-9 [1]) [µM] | IC50 (hDPP-2) [µM] | titers of anti-CGG IgG1 and other isotypes, drug treated vs control animals [2] | total anti-NP response as measured by λ-bearing and G1 isotype ([2]; primary and secondary response vs control) | killing of male cells (CD8 T cell mediated) [3] | CD8 T cell cytotoxicity in comparison to the wild type animals ([3]; female mice primed with male cells, compound in chow throughout) | IC50 (hDPP-9 [4]) [µM] | IC50 (Proline dipeptidase) [µM] | IC50 (Prolyl endopeptidase) [µM] | IC50 [5] [µM] | IC50 (Amino peptidase P) [µM] | IC50 (Prolidase) [µM]
N[C@@H](CC(=O)N1CCn2c(nnc2C(F)(F)F)C1)Cc1cc(F)ccc1F [Des-flurositagliptin, des-fluro sitagliptin] | > 10 | > 10 | similar | unaltered | ~ 67% | equivalent cytotoxicity | > 10 | > 10 | > 10 | > 10 | > 10 | > 10
C=CC[C@@H]1/C=C(\C)C[C@H](C)C[C@H](OC)[C@H]2O[C@@](O)(C(=O)C(=O)N3CCCC[C@H]3C(=O)O[C@H](/C(C)=C/[C@@H]3CC[C@@H](O)[C@H](OC)C3)[C@H](C)[C@@H](O)CC1=O)[C@H](C)C[C@@H]2OC [FK506] | – | – | – | – | 40% | – | – | – | – | – | – | –
